Patent publication US20080096811A1, “[…] VPAC2 RECEPTOR PEPTIDE AGONISTS” (Eli Lilly and Company, published 2008)
Values belong to the molecule of their own block, whether it stands above or below them. *1 amine or outer side, *2 acyl side, *3 side chain or, on linkers, in order; H or OH if unused. Where a SMILES comes first, the peptide text is derived from it. Where no end group is shown, it is not given here. Side-chain parts run from the residue outwards. The star is where a group is joined. γGlu = O=C(O)[C@H](CCC(=O)[*:2])N[*:1]; Palmitoyl = CCCCCCCCCCCCCCCC(=O)*; Hexanoyl = CCCCCC(=O)*; Propionyl = CCC(=O)*

Experiments:
human PAC1 = human PAC1 (Homo sapiens, UniProt P41586); assay: biochemical
Method: (§1) For this assay, the solutions and equipment include:
(§2) Presoak solution: 0.5% Polyethyleneamine in Aqua dest.
(§3) Buffer for flushing filter plates: 25 mM […] pH 7.4
(§4) Blocking buffer: 25 mM HEPES pH 7.4; 0.2% protease free BSA
(§5) Assay buffer: 25 mM HEPES pH 7.4; 0.5% protease free BSA
(§6) Dilution and assay plate: PS-Microplate, U form
(§7) Filtration Plate Multiscreen FB Opaque Plate; […] Type B Glasfiber filter
(§8) In order to prepare the filter plates, aspirate the presoak solution by vacuum filtration. Flush the plates twice with 200 μL flush buffer. Add 200 μL blocking buffer to the filter plate. The filter plate is then incubated […] for 1 hour at room temperature.
(§9) Fill the assay plate with 25 μL assay buffer, 25 μL membranes (2.5 μg) suspended in assay buffer, 25 μL compound (agonist) in assay buffer, and 25 μL tracer (about 40000 cpm) in assay buffer. Incubate the filled plate for 1 hour with shaking.
(§10) Conduct the transfer from assay plate to filter plate. Aspirate the blocking buffer by vacuum filtration and wash two times with flush buffer. Transfer 90 μL from the assay plate to the filter plate. Aspirate the 90 μL transferred from assay plate and wash three times with 200 μL flush buffer. Remove the plastic support. Dry for 1 hour at 60° C. Add 30 μL Microscint. Perform the count.

human VPAC1 = biological target: T1, human VPAC1 (Homo sapiens, UniProt P32241); assay: Filter binding assay, human VPAC1 membranes, 125I-labeled VIP tracer; set-up: expressed in transfected cells
T1 sequence (P32241 31-457): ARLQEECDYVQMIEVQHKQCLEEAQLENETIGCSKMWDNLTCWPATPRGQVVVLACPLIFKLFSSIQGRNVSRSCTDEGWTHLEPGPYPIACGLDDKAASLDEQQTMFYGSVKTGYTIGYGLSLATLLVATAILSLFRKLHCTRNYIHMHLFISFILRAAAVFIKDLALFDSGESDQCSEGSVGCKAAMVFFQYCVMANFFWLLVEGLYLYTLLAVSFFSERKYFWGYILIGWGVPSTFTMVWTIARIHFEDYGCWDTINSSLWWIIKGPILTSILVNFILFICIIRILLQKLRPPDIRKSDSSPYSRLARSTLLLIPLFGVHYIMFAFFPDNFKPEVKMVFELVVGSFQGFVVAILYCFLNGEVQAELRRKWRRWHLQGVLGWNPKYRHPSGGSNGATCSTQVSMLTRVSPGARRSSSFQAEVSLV
Method: as §1, §2, §3, §4, §5, §6, §7, §8, §9, §10

human VPAC2 [1] = biological target: T2, human VPAC2 (Homo sapiens, UniProt P41587); assay: Filter binding assay, human VPAC2 membranes, 125I-labeled VIP tracer
T2 construct: expressed in transfected cells
T2 sequence (P41587 24-438): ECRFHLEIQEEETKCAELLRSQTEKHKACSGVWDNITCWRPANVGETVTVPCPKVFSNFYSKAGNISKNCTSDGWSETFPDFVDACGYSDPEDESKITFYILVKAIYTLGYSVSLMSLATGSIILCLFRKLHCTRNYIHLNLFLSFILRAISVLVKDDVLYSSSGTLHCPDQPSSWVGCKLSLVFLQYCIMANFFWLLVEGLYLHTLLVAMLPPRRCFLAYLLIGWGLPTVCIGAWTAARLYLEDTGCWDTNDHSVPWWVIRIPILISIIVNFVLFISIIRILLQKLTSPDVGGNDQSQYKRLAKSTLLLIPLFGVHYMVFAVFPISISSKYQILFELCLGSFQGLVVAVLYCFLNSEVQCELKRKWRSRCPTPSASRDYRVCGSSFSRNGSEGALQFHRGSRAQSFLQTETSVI
Method: as §1, §2, §3, §4, §5, §6, §7, §8, §9, §10

human VPAC2 [2] = biological target: T2, human VPAC2; assay: Alpha screen cAMP in vitro potency, human VPAC2; format: cell-based
Method: Alpha screen: Cells are washed in the culture flask once with PBS. Then, the cells are rinsed with enzyme free dissociation buffer. The dissociated cells are removed. The cells are then spun down and washed in stimulation buffer. For each data point, 50,000 cells suspended in stimulation buffer are used. To this buffer, Alpha screen acceptor beads are added along with the stimuli. This mixture is incubated for 60 minutes. Lysis buffer and Alpha screen donor beads are added and are incubated for 60 to 120 minutes. The Alpha screen signal (indicative of intracellular cAMP levels) is read in a suitable instrument (e.g. AlphaQuest from Perlin-Elmer). Steps including Alpha screen donor and acceptor beads are performed in reduced light.

[3] = biological target: T3, human VPAC2 receptor (human) (UniProt P41587)
T3 sequence: T2 sequence (P41587 24-438)

Sequence of human PAC1 (P41586 21-468): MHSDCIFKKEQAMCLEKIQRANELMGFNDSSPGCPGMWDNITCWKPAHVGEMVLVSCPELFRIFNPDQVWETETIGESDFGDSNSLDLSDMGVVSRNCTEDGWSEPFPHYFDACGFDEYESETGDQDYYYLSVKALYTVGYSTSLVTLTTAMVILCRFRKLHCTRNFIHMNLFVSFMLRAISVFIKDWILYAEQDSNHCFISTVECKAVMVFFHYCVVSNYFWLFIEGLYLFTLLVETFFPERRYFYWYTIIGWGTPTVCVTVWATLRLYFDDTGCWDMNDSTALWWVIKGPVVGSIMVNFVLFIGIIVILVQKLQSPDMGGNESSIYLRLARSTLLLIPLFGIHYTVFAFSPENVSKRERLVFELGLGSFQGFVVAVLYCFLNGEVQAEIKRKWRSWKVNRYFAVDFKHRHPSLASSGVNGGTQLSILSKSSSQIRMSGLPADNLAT

Molecule: CCCCCC(=O)N[C@@H](Cc1c[nH]cn1)C(=O)N[C@@H](CO)C(=O)N[C@@H](CC(=O)O)C(=O)N[C@@H](C)C(=O)N[C@H](C(=O)N[C@@H](Cc1ccccc1)C(=O)N[C@H](C(=O)N[C@@H](CC(=O)O)C(=O)N[C@@H](CC(N)=O)C(=O)N[C@@H](Cc1ccc(O)cc1)C(=O)N[C@H](C(=O)N[C@@H](CCCNC(=N)N)C(=O)N[C@@H](CC(C)C)C(=O)N[C@@H](CCCNC(=N)N)C(=O)N[C@@H](CCCCN)C(=O)N[C@@H](CCC(N)=O)C(=O)N[C@H](C(=O)N[C@@H](C)C(=O)N[C@@H](C)C(=O)N[C@@H](CCCCN)C(=O)N[C@@H](CCCCN)C(=O)N[C@@H](Cc1ccc(O)cc1)C(=O)N[C@@H](CC(C)C)C(=O)N[C@@H](CCC(N)=O)C(=O)N[C@@H](CO)C(=O)N[C@H](C(=O)N[C@@H](CCCCN)C(=O)N[C@@H](CC(N)=O)C(=O)N[C@@H](CO)C(=O)N[C@@H](CCCNC(=N)N)C(=O)N[C@H](C(=O)N[C@@H](CO)C(=O)N1CCC[C@H]1C(=O)N1CCC[C@H]1C(=O)N1CCC[C@H]1C(=O)N[C@@H](CCCCNC(=O)[C@@H](N)Cc1c[nH]c2ccccc12)C(N)=O)[C@@H](C)O)[C@@H](C)CC)C(C)C)[C@@H](C)O)[C@@H](C)O)C(C)C [Agonist P118] (Hexanoyl-HSDAVFTDNYTRLRKQVAAKKYLQSIKNSRTSPPPK(Trp)-NH2)
- IC50 (human PAC1): 125 nM
- IC50 (human VPAC1): 76.3 nM
- IC50 (human VPAC2 [1]): 0.25 nM

Molecule: CC[C@H](C)[C@H](NC(=O)[C@H](CO)NC(=O)[C@H](CCC(N)=O)NC(=O)[C@H](CC(C)C)NC(=O)[C@H](Cc1ccc(O)cc1)NC(=O)[C@H](CCCCN)NC(=O)[C@H](CCCCN)NC(=O)[C@H](C)NC(=O)[C@H](C)NC(=O)[C@@H](NC(=O)[C@H](CCC(N)=O)NC(=O)[C@H](CCCCN)NC(=O)[C@H](CCCNC(=N)N)NC(=O)[C@H](CC(C)C)NC(=O)[C@H](CCCNC(=N)N)NC(=O)[C@@H](NC(=O)[C@H](Cc1ccc(O)cc1)NC(=O)[C@H](CC(N)=O)NC(=O)[C@H](CC(=O)O)NC(=O)[C@@H](NC(=O)[C@H](Cc1ccccc1)NC(=O)[C@@H](NC(=O)[C@H](C)NC(=O)[C@H](CC(=O)O)NC(=O)[C@H](CO)NC(=O)[C@@H](N)Cc1c[nH]cn1)C(C)C)[C@@H](C)O)[C@@H](C)O)C(C)C)C(=O)N[C@@H](CCCCN)C(=O)N[C@@H](CC(N)=O)C(=O)N[C@@H](CO)C(=O)N[C@@H](CCCNC(=N)N)C(=O)N[C@H](C(=O)N[C@@H](CO)C(=O)N1CCC[C@H]1C(=O)N1CCC[C@H]1C(=O)N1CCC[C@H]1C(=O)N[C@@H](CCCCNC(=O)[C@@H](N)Cc1c[nH]c2ccccc12)C(N)=O)[C@@H](C)O [Agonist P128] (H-HSDAVFTDNYTRLRKQVAAKKYLQSIKNSRTSPPPK(Trp)-NH2)
- IC50 (human PAC1): 104 nM
- EC50 (human VPAC2 [2]): 1.78 nM
- IC50 (human VPAC1): 110 nM
- IC50 (human VPAC2 [1]): 2.25 nM

Molecule: CCCCCC(=O)N[C@@H](Cc1c[nH]cn1)C(=O)N[C@@H](CO)C(=O)N[C@@H](CC(=O)O)C(=O)N[C@@H](C)C(=O)N[C@H](C(=O)N[C@@H](Cc1ccccc1)C(=O)N[C@H](C(=O)N[C@@H](CC(=O)O)C(=O)N[C@@H](CC(N)=O)C(=O)N[C@@H](Cc1ccc(O)cc1)C(=O)N[C@H](C(=O)N[C@@H](CCCNC(=N)N)C(=O)N[C@@H](CC(C)C)C(=O)N[C@@H](CCCNC(=N)N)C(=O)N[C@@H](CCCCN)C(=O)N[C@@H](C)C(=O)N[C@@H](C)C(=O)N[C@@H](C)C(=O)N[C@@H](C)C(=O)N[C@@H](CCCCN)C(=O)N[C@@H](CCCCN)C(=O)N[C@@H](Cc1ccc(O)cc1)C(=O)N[C@@H](CC(C)C)C(=O)N[C@@H](CCC(N)=O)C(=O)N[C@@H](CO)C(=O)N[C@H](C(=O)N[C@@H](CCCCN)C(=O)N[C@@H](CC(N)=O)C(=O)N[C@@H](CO)C(=O)N[C@@H](CCCNC(=N)N)C(=O)N[C@H](C(=O)N[C@@H](CO)C(=O)N1CCC[C@H]1C(=O)N1CCC[C@H]1C(=O)N1CCC[C@H]1C(N)=O)[C@@H](C)O)[C@@H](C)CC)[C@@H](C)O)[C@@H](C)O)C(C)C [Agonist P178] (Hexanoyl-HSDAVFTDNYTRLRKAAAAKKYLQSIKNSRTSPPP-NH2)
- EC50 (human VPAC2 [2]): 0.12 nM
- IC50 (human VPAC1): 35.7 nM
- IC50 (human VPAC2 [1]): 0.16 nM

Molecule: CC[C@H](C)[C@H](NC(=O)[C@H](CO)NC(=O)[C@H](CC(N)=O)NC(=O)[C@H](CC(C)C)NC(=O)[C@H](Cc1ccc(O)cc1)NC(=O)[C@H](CCCCN)NC(=O)[C@H](CCCCN)NC(=O)[C@@H](NC(=O)[C@H](C)NC(=O)[C@H](CCSC)NC(=O)[C@H](CCC(N)=O)NC(=O)[C@H](CCCCN)NC(=O)[C@H](CCCN=C(N)N)NC(=O)[C@H](CC(C)C)NC(=O)[C@H](CCCN=C(N)N)NC(=O)[C@@H](NC(=O)[C@H](Cc1ccc(O)cc1)NC(=O)[C@H](CC(N)=O)NC(=O)[C@H](CC(=O)O)NC(=O)[C@@H](NC(=O)[C@H](Cc1ccccc1)NC(=O)[C@@H](NC(=O)[C@H](C)NC(=O)[C@H](CC(=O)O)NC(=O)[C@H](CO)NC(=O)[C@@H](N)Cc1cnc[nH]1)C(C)C)[C@@H](C)O)[C@@H](C)O)C(C)C)C(=O)N[C@@H](CC(C)C)C(=O)N[C@@H](CC(N)=O)C(=O)O [VIP, reference compound]
- IC50 (human PAC1): > 25000 nM

- EC50 (nM) for cAMP generation, Alpha Screen [3]: 0.9 nM
Molecule: HSDAVFTDNYTRLRKQAAAKKYLQSIKNSRTSPPP-NH2 [P96]

- EC50 (nM) for cAMP generation, Alpha Screen [3]: 0.24 nM
- EC50 (nM) for cAMP generation, DiscoveRx [3]: 0.45 nM
B1: P95 (peptide)
peptide: Propionyl-HSDAVFTDNYTRLRKQVAAKKYLQSIKNSRTSPPPK([γGlu-Palmitoyl])-NH2
SMILES: CCCCCCCCCCCCCCCC(=O)N[C@@H](CCC(=O)NCCCC[C@H](NC(=O)[C@@H]1CCCN1C(=O)[C@@H]1CCCN1C(=O)[C@@H]1CCCN1C(=O)[C@H](CO)NC(=O)[C@@H](NC(=O)[C@H](CCCNC(=N)N)NC(=O)[C@H](CO)NC(=O)[C@H](CC(N)=O)NC(=O)[C@H](CCCCN)NC(=O)[C@@H](NC(=O)[C@H](CO)NC(=O)[C@H](CCC(N)=O)NC(=O)[C@H](CC(C)C)NC(=O)[C@H](Cc1ccc(O)cc1)NC(=O)[C@H](CCCCN)NC(=O)[C@H](CCCCN)NC(=O)[C@H](C)NC(=O)[C@H](C)NC(=O)[C@@H](NC(=O)[C@H](CCC(N)=O)NC(=O)[C@H](CCCCN)NC(=O)[C@H](CCCNC(=N)N)NC(=O)[C@H](CC(C)C)NC(=O)[C@H](CCCNC(=N)N)NC(=O)[C@@H](NC(=O)[C@H](Cc1ccc(O)cc1)NC(=O)[C@H](CC(N)=O)NC(=O)[C@H](CC(=O)O)NC(=O)[C@@H](NC(=O)[C@H](Cc1ccccc1)NC(=O)[C@@H](NC(=O)[C@H](C)NC(=O)[C@H](CC(=O)O)NC(=O)[C@H](CO)NC(=O)[C@H](Cc1c[nH]cn1)NC(=O)CC)C(C)C)[C@@H](C)O)[C@@H](C)O)C(C)C)[C@@H](C)CC)[C@@H](C)O)C(N)=O)C(=O)O
